Where two headings read alike, the source gives them in different places.
Tests used:
[1] = test system: SARS-CoV-2; experiment: microbe, parasite or virus in culture; assay type: cell-based; conditions: Severe acute respiratory syndrome coronavirus 2, Vero C1008, 96 h
[2] = in vitro; conditions: African green monkey
[3] = test system: Vero E6 cells
[4] = test system: SARS-CoV-2; experiment: microbe, parasite or virus in culture; assay type: cell-based
[5] = CPE assay, percent cell protection, moi 0.05, 4 days, read-out: EC50
[6] = Severe acute respiratory syndrome coronavirus 2, Vero C1008, Table 2, naproxen/ketotifen experiment
[7] = Table 2, column 50 μM (head: Concentration Naproxen)

Compound: COc1ccc2c(c1)c(CC(=O)O)c(C)n2C(=O)c1ccc(Cl)cc1 [Indomethacin, 2-{1-[(4-Chlorophenyl)-carbonyl]-5-methoxy-2-methyl-1H-indol-3-yl}acetic acid]
- EC50 [1, 5]: > 400 µM
- CC50 [2]: > 400 µM
- Percentage viability ([3]; concentration 0.39 μM): 98%
- Percentage viability ([3]; concentration 0.78 μM): 106%
- Percentage viability ([3]; concentration 1.56 μM): 111%
- Percentage viability ([3]; concentration 3.13 μM): 117%
- Percentage viability ([3]; concentration 6.25 μM): 124%
- Percentage viability ([3]; concentration 12.5 μM): 124%
- Percentage viability ([3]; concentration 25 μM): 125%
- Percentage viability ([3]; concentration 50 μM): 143%
- Percentage viability ([3]; concentration 100 μM): 143%
- inhibition of SARS-CoV-2 / viral yield (in words) [4]: inhibited SARS-CoV-2
- EC50 ([4]; Severe acute respiratory syndrome coronavirus 2, Vero C1008, Table 4, indomethacin titrated, alone or with fixed ketotifen): 100 µM
- inhibition at 25 µM ([4]; Severe acute respiratory syndrome coronavirus 2, Vero C1008, Table 4, Concentration Indomethacin 25 μM, read-out: percentage inhibition of SARS-CoV-2): 0%
- inhibition at 50 µM ([4]; Severe acute respiratory syndrome coronavirus 2, Vero C1008, Table 4, Concentration Indomethacin 50 μM, read-out: percentage inhibition of SARS-CoV-2): 0%
- inhibition at 100 µM ([4]; Severe acute respiratory syndrome coronavirus 2, Vero C1008, Table 4, Concentration Indomethacin 100 μM, read-out: percentage inhibition of SARS-CoV-2): 50%

Compound: CN1CCC(=C2c3ccccc3CC(=O)c3sccc32)CC1 [Ketotifen]
- EC50 [1]: > 139 µM
- CC50 [2]: 139 µM
- Percentage viability ([3]; concentration 0.20 μM): 110%
- Percentage viability ([3]; concentration 0.39 μM): 103%
- Percentage viability ([3]; concentration 0.78 μM): 101%
- Percentage viability ([3]; concentration 1.56 μM): 109%
- Percentage viability ([3]; concentration 3.13 μM): 121%
- Percentage viability ([3]; concentration 6.25 μM): 125%
- Percentage viability ([3]; concentration 12.5 μM): 122%
- Percentage viability ([3]; concentration 25 μM): 104%
- Percentage viability ([3]; concentration 50 μM): 86%
- inhibition of SARS-CoV-2 / viral yield (in words) [4]: inhibited SARS-CoV-2
- EC50 [4, 6]: 48.9 µM
- EC50 ([4]; Severe acute respiratory syndrome coronavirus 2, Vero C1008, Table 3, ketotifen titrated, alone or with fixed indomethacin): 47.1 µM
- inhibition at 6.25 µM ([4]; Severe acute respiratory syndrome coronavirus 2, Vero C1008, Table 3, Concentration Ketotifen 6.25 μM, read-out: percentage inhibition of SARS-CoV-2): 0%
- inhibition at 12.5 µM ([4]; Severe acute respiratory syndrome coronavirus 2, Vero C1008, Table 3, Concentration Ketotifen 12.5 μM, read-out: percentage inhibition of SARS-CoV-2): 0%
- inhibition at 25 µM ([4]; Severe acute respiratory syndrome coronavirus 2, Vero C1008, Table 3, Concentration Ketotifen 25 μM, read-out: percentage inhibition of SARS-CoV-2): 0%
- inhibition at 50 µM ([4]; Severe acute respiratory syndrome coronavirus 2, Vero C1008, Table 3, Concentration Ketotifen 50 μM, read-out: percentage inhibition of SARS-CoV-2): 60%
- percentage inhibition of SARS-CoV-2 [4, 7]: 68%

Compound: COc1ccc2cc(C(C)C(=O)O)ccc2c1 (stereo not drawn) [Naproxen, 6-methoxy-α-methyl-2-naphthaleneacetic acid]
- EC50 [1, 5]: > 400 µM
- EC50 [4, 6]: > 100 µM
- percentage inhibition of SARS-CoV-2 ([4]; Table 2, column 6.25 μM (head: Concentration Naproxen)): 0%
- percentage inhibition of SARS-CoV-2 ([4]; Table 2, column 12.5 μM (head: Concentration Naproxen)): 21%
- percentage inhibition of SARS-CoV-2 ([4]; Table 2, column 25 μM (head: Concentration Naproxen)): 0%
- percentage inhibition of SARS-CoV-2 [4, 7]: 0%
- percentage inhibition of SARS-CoV-2 ([4]; Table 2, column 100 μM (head: Concentration Naproxen)): 0%

Compound: CCC(CC)COC(=O)[C@H](C)N[P@](=O)(OC[C@H]1O[C@@](C#N)(c2ccc3c(N)ncnn23)[C@H](O)[C@@H]1O)Oc1ccccc1 [Remdesivir]
- EC50 [1]: 2.9 µM

Source: patent US20240033259A1, “COMPOSITIONS AND METHODS FOR TREATING OR PREVENTING DISEASE ASSOCIATED WITH BETA CORONAVIRUS INFECTION” (priority 2020, published 2024)
